For two compounds, IC50 and Kp results are on record in patent US20250032465A1, “METHODS OF TREATING CNS DISORDERS” (HANGZHOU HIGHLIGHTLL PHARMACEUTICAL CO., LTD, priority 2021, published 2025).

Usually IC50 stands for the concentration that gives 50% inhibition.

In data set [1] the target is T1, JAK1 (Homo sapiens, UniProt P23458).
T1 construct: purchased Reaction Biology Corp, Malvern, PA (contract testing)
Briefly: JAK1 biochemical test (33P-ATP filter binding, Reaction Biology). The conditions noted are these: read-out: Inhibition of JAK1 (IC50). The protocol:
(§1) The tests were conducted by Reaction Biology Corp, Malvern, PA (Anastassiadis et al. Nat Biotechnol. 2011; 29(11):1039-45). The step is briefly described as follows, using the basic reaction buffer: 20 mM Hepes (pH 7.5), 10 mM MgCl2, 1 mM EGTA, 0.02% Brij35, 0.02 mg/ml BSA, 0.1 mM Na3VO4, 2 mM DTT and 1% DMSO. The required cofactor was added to each kinase reaction respectively. Each reaction was performed according to the following reaction steps: 1) Preparing the designated substrate in the newly prepared basic reaction buffer; 2) Transferring the required cofactor to the above matrix solution; 3) Transferring the designated kinase to the substrate solution and mixing well slightly; 4) Transferring a compound of Formula (I) in DMSO to the kinase reaction mixture with Acoustic technique (Echo550; nanoliter range), culturing for 20 minutes at room temperature; 5) Introducing ^33P-ATP (specific activity: 10 μCi/μl) to the reaction mixture to trigger a reaction; 6) Culturing at room temperature and conducting a kinase reaction for 2 hours; 7) Plotting the reaction on P81 ion exchange paper; and 8) Testing the kinase activity with a filter binding assay. The results shown in Table 1 indicate that compounds of Formulae (I)-(III) are potent and selective TYK2/JAK1 inhibitors.

A further data set addresses T2, JAK2 (Homo sapiens, UniProt O60674).
T2 construct: purchased Reaction Biology Corp, Malvern, PA (contract testing)
Briefly: JAK2 biochemical test (33P-ATP filter binding, Reaction Biology). The conditions noted are these: read-out: Inhibition of JAK2 (IC50). The procedure: as §1

Data set [2] concerns the target T3, TYK2 (Homo sapiens, UniProt P29597).
T3 construct: purchased Reaction Biology Corp, Malvern, PA (contract testing)
Kind of data set: TYK2 biochemical test (33P-ATP filter binding, Reaction Biology). The following applies: read-out: Inhibition of TYK2 (IC50). The procedure: as §1

Data set [3] has as its target T1, JAK1. Kind of data set: JAK1 cellular ELISA assay using PBMC cells (IL-6 stimulated STAT3 phosphorylation). It is filed as cell-based. The following applies: IL-6 100 ng/ml, 25 min. The protocol:
This testing was performed to test cellular JAK1 activity using the IL-6 stimulated STAT3 phosphorylation assay in PBMC cells. The testing was performed according to the following procedure: 1) Plate PBMC cells to 96-well plate at density of ˜300,000 cell/well; 2) Add different concentrations of test article to wells, maintain in incubator at 37° C. and 5% CO2 for 1 hour; 3) Add IL-6 (final concentration: 100 ng/ml) to stimulate for 25 min in the above incubator; 4) After stimulation, transfer the suspension to 1.5 mL tube, centrifuge at 200 g for 5 min, collect cells, add 100 μL 1× lysate, lyse on ice for 1 hour; 5) Centrifuge at 4° C. and 12000 rpm for 10 min, take the supernatant and analyze according to instructions of the ELISA kit. In this assay, compounds of Formulae (II) and (III) had IC50<300 nM.
In general terms: In an ELISA, binding on a coated surface is turned into a signal by an enzyme label.

Data set [4] can be described thus: Brain penetration in mice. It is filed as in vivo, C57BL/6 mice. The conditions noted are these: male, mouse, 30 mg/kg oral gavage, 4-hour post-dosing. The procedure:
This testing was performed to test the ability of compounds to penetrate the blood-brain-barrier in mice. The testing was performed according to the following procedure: 1) for each compound, take 3 male C57BL/6 mice with body weight of 17-18 g, formulate compound using 0.5% HPMC/water suspension at concentration of 3 mg/ml; 2) After fasting overnight, administer compound at 30 mg/kg by oral gavage; 3) Take plasma samples at 1, 2, 4 hours post-dosing; 4) At 4-hour post-dosing, also take brain tissues and cerebrospinal fluid (CSF) fluid; 5) Analyze compound concentration in plasma, brain tissue, and CSF fluid using LC-MS/MS method.

In data set [5] the target is T3, TYK2. Briefly: TYK2 cellular ELISA assay using NK92 cells (IL-12 and IL-18 stimulated IFNγ excretion). Type of data set: cell-based. The following applies: IL-12 2 ng/ml, IL-18 5 ng/ml, 24 hours. The procedure:
This testing was performed to test cellular TYK2 activity using IL-12 and IL-18 stimulated IFNγ excretion assay in NK92 cells. The testing was performed according to the following procedure: 1) Replace NK92 cell media containing IL-2 with media not containing IL-2, maintain overnight; 2) Plate NK92 cells to 96-well plate at density of ˜150,000 cell/well; 3) Add different concentrations of test article to wells, maintain in incubator at 37° C. and 5% CO2 for 1 hour; 4) Add IL-12 (final concentration: 2 ng/ml) and IL-18 (final concentration: 5 ng/ml) to stimulate for 24 hours in the above incubator; 5) After 24 hours, centrifuge at 2000 rpm for 5 min, take the supernatant and analyze according to instructions of the ELISA kit. In this assay, compounds of Formulae (II) and (III) had IC50<100 nM.

The target in a further data set is T4, JAK3 (Homo sapiens, UniProt P52333).
T4 construct: purchased Reaction Biology Corp, Malvern, PA (contract testing)
T4 sequence (P52333 1-1124): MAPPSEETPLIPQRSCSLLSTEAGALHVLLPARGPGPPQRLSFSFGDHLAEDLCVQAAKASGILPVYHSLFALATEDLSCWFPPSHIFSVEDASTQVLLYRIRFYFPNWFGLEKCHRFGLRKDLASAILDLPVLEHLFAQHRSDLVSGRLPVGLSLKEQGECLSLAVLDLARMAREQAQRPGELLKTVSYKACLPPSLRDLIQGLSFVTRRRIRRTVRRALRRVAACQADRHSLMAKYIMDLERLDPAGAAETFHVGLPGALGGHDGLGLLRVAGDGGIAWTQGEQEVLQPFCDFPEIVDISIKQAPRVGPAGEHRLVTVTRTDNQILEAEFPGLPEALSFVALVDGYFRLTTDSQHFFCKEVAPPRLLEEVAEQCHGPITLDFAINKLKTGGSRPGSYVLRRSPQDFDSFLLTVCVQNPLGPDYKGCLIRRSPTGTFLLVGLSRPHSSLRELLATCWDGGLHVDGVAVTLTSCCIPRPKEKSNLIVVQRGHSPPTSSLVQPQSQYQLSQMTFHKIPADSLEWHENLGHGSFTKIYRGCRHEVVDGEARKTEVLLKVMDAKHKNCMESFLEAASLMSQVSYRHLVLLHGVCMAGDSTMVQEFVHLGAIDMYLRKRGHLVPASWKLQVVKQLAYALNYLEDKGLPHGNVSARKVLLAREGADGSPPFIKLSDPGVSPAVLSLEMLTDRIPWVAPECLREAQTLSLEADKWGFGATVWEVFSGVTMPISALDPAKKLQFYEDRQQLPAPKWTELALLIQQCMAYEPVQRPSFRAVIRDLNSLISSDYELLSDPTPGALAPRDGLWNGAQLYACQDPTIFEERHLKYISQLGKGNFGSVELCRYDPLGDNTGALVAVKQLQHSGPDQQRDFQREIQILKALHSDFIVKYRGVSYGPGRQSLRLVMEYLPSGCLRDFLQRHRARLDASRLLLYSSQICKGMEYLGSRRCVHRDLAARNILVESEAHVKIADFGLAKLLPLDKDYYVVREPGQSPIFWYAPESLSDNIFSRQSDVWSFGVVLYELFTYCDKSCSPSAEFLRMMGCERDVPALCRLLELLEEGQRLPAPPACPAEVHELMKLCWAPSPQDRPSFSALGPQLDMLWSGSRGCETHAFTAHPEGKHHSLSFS
Briefly: JAK3 biochemical test (33P-ATP filter binding, Reaction Biology). The conditions noted are these: read-out: Inhibition of JAK3 (IC50). The protocol:
as §1

A short description of data set [6]: Brain penetration in rats. The conditions noted are these: male, rat, 10 mg/kg oral gavage, 8 hour post-dosing. Type of data set: in vivo. The procedure: This testing was performed to test the ability of compounds to penetrate the blood-brain-barrier in rats. The testing was performed according to the following procedure: 1) For each compound, take 3 male rats with body weight of 217-228 g, formulate compound using 0.5% HPMC/water suspension at concentration of 1 mg/ml; 2) After fasting overnight, administer compound at 10 mg/kg by oral gavage; 3) Take plasma samples at 1, 2, 4, 8 hours post-dosing; 4) At 8 hour post-dosing, also take brain tissues and cerebrospinal fluid (CSF); 5) Analyze compound concentration in plasma, brain tissue, and CSF using LC-MS/MS method.

Where two headings read alike, the source gives them in different places.

T1 sequence (P23458 whole entry): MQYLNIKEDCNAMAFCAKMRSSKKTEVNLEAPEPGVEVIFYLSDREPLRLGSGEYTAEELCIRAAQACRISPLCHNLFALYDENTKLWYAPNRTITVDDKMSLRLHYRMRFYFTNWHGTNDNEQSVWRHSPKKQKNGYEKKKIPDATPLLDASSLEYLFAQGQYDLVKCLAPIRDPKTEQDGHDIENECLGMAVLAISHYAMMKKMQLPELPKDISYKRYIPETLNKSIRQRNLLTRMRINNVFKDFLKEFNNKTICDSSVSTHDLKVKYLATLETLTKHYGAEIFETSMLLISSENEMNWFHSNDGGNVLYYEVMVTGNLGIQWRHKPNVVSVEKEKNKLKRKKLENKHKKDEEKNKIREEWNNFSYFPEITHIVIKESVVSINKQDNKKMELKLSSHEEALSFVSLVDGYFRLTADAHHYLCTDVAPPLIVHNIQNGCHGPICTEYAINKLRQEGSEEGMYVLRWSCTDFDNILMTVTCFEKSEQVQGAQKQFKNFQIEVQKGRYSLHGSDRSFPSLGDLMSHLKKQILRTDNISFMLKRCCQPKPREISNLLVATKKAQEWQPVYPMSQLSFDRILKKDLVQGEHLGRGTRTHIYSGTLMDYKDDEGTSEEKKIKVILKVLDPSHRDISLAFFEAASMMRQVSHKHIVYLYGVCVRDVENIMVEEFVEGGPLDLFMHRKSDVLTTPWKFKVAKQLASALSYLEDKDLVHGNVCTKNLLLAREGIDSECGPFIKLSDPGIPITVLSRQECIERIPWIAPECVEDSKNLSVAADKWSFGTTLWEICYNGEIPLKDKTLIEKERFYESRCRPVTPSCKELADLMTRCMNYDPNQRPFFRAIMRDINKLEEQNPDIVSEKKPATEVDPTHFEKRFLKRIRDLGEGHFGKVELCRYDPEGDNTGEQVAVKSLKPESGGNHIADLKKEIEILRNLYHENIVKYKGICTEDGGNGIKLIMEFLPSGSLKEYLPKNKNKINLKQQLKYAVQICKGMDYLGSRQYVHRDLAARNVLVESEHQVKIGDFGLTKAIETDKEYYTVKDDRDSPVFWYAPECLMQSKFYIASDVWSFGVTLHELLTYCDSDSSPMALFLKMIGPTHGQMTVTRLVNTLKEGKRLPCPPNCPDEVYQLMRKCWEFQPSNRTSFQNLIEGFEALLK
T3 sequence (P29597 whole entry): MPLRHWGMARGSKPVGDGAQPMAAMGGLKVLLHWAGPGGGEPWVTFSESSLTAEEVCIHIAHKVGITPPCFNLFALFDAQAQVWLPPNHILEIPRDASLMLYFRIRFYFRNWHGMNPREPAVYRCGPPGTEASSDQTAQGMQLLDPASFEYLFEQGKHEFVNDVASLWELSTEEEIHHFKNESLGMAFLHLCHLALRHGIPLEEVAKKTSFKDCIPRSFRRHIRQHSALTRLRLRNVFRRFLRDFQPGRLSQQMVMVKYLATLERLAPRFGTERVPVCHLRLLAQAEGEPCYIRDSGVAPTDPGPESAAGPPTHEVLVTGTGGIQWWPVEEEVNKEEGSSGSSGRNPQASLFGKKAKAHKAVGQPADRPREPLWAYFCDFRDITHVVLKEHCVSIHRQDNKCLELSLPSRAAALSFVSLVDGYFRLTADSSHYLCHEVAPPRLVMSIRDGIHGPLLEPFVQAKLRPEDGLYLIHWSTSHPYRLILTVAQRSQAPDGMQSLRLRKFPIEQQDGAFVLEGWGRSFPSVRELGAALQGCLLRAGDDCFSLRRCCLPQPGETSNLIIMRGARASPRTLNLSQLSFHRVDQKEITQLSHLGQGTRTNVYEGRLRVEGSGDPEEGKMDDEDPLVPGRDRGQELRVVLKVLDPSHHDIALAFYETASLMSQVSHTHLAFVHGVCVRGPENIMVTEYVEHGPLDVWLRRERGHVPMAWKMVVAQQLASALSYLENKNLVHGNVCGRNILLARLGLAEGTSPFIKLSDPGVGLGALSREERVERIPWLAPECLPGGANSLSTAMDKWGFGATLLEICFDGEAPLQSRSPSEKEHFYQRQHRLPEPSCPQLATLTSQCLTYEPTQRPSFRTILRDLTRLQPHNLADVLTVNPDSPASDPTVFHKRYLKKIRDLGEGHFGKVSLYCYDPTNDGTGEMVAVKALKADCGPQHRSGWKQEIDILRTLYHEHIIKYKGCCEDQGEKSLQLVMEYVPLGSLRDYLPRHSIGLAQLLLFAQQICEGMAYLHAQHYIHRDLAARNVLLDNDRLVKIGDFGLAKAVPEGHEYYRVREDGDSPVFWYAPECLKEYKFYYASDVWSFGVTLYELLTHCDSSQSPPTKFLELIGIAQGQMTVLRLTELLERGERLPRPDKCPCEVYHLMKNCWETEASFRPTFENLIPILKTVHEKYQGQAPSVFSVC
T2 sequence (O60674 whole entry): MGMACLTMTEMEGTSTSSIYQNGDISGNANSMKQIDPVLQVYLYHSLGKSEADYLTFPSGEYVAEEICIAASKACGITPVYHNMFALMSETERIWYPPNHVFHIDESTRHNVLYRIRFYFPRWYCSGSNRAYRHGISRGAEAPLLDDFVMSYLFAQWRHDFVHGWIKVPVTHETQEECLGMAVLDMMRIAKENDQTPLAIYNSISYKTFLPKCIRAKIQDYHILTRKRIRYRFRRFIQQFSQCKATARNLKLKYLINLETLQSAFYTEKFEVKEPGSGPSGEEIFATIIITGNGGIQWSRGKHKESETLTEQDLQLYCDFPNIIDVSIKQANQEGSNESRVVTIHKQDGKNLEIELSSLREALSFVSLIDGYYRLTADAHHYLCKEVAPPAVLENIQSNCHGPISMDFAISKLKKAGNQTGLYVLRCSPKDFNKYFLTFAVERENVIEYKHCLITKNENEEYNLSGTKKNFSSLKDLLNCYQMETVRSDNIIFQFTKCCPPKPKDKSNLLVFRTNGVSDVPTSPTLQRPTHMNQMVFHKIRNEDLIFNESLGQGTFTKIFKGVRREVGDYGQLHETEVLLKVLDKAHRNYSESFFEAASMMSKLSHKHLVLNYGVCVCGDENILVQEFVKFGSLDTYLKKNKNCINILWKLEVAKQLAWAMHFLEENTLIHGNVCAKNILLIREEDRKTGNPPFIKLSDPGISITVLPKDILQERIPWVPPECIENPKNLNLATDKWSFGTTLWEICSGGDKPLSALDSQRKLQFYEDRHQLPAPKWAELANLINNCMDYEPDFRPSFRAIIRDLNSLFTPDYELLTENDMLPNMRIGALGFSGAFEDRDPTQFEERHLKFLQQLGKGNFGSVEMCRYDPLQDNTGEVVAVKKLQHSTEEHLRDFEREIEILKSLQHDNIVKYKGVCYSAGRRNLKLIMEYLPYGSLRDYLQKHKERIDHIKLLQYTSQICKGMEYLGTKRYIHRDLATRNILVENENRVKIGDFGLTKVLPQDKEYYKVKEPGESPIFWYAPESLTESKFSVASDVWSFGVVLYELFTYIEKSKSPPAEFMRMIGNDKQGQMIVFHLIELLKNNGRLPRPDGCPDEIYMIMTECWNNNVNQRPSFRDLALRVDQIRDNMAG

Turning to `CCc1nc2cnc3ccoc3c2n1[C@H]1CC[C@H](CC#N)OC1` [Formula (I)], the half-maximal inhibitory concentration (IC50) was less than 10 nM on JAK1 [1], greater than 200 nM on JAK2 and less than 100 nM on TYK2 [2].
Turning to `Cc1nc2cnc3ccoc3c2n1[C@H]1CC[C@H](CC#N)CC1` [Formula (III)], the IC50 at JAK1 [1] is less than 10 nM; against JAK1 [3], less than 300 nM; at JAK2, greater than 20 nM; on TYK2 [2], less than 10 nM; against TYK2 [5], less than 100 nM; at JAK3, greater than 100 nM. The Kp at 4 h in data set [4] (C57BL/6, CSF/plasma, read-out: CSF (ng/ml)/ Plasma (ng/ml)) is greater than 0.15; in data set [4] (C57BL/6, brain/plasma, read-out: Brain (ng/ml)/ Plasma (ng/ml)), greater than 0.3. Also, the Kp at 8 h in data set [6] (CSF/plasma, read-out: CSF (ng/ml)/ Plasma (ng/ml)) is greater than 0.15; in data set [6] (brain/plasma, read-out: Brain (ng/ml)/ Plasma (ng/ml)), greater than 0.4.
